{"source": "patent US12599128B2", "about": "“Composition and method for improving agronomic traits of a plant” (THE BOARD OF TRUSTEES OF THE UNIVERSITY OF ILLINOIS, priority 2024, dated 2026)", "format_in_all_cases": "in vivo", "key": {"[1]": {"system": "soybean plants (shoot apical meristem)", "assay": "Field trial 1: soybean seed production after spraying the shoot apical meristem", "method": "(§1) FIG. 1 provides an example of an increase in soybean seed production following the removal of apical dominance by spraying with a double pass of 0.1M methyl decanoate (199.0±14.14 seeds/plant on average) at the V5 stage of growth compared to untreated controls (160.47±5.33 seeds/plant on average) conducted in Pleasant Plains, Illinois. […] Asterisks show significance differences at the 0.05 level.\nField trial 1 was conducted in Pleasant Plants, Illinois. A single soybean variety was used in the field trial. The soybean variety was planted in 20 plots. Each plot was composed of 8 rows of plants spaced 30 inches apart and was 50 feet long by 20 feet wide. Soybeans were treated with 0.10 M methyl decanoate spray. An undiluted surfactant, polyoxyethylene sorbitan monolaurate, was added in equal weight to the fatty ester. Additional spray was applied by completion of a second pass with 0.10 M methyl decanoate spray. The second pass was completed immediately after the initial treatment of each row to saturate the apical meristem.\nSoybean plants were sprayed using an individual chemical spray backpack. The plants were sprayed with approximately 2.5 gallons/1000 sq feet of 0.1 M (or an equivalent of 110 gallons/acre) with the double pass. Soybean plants were sprayed with methyl decanoate at the V5 growth stage.\nThe overall experiment was designed to distribute untreated control plots and mechanically clipped plants at the same growth stage with the methyl decanoate treated variety across the test field."}, "[2]": {"system": "soybean plants (shoot apical meristem)", "assay": "Field trial 2: soybean seed production after spraying the shoot apical meristem", "method": "FIG. 2 provides an example of an increase in soybean seed production following the removal of apical dominance by spraying with a double pass of 0.1M methyl decanoate (220.6±21.96 seeds/plant on average) at the V3 stage of growth compared to untreated controls (147.88±13.59 seeds/plant on average) conducted in Mt. Pulaski, Illinois. […] Asterisks show significance differences at the 0.05 level, + indicates a marginally significant difference at <0.10.\nField trial 2 was conducted at GroAlliance in Mt Pulaski, Illinois and planted with a soybean variety. Soybean plants were treated with a spray containing 0.10 M methyl decanoate and polyethylene sorbitan monolaurate. Soybean plants were sprayed using individual chemical backpack spray units. The soybean plants were treated with methyl decanoate at or between the growth stages of V3 and V4.\nThe test field was subdivided into plots with the dimensions of five rows by 10 feet. Two plots were designated for each soybean variety for spray treatment and distributed geographically across the full test field. Untreated control plots and mechanically clipped plants at the same growth stage were adjacent to the test plot areas."}, "[3]": {"system": "soybean plants (shoot apical meristem)", "assay": "Field trial 3: soybean seed production after spraying the shoot apical meristem", "method": "as §1, with “FIG. 3” for “FIG. 1”, “decanoate (97.85±4.43” for “decanoate (199.0±14.14”, “the V4-V6” for “the V5”, “controls (79.81±3.09” for “controls (160.47±5.33”, “in Lowell, Indiana.” for “in Pleasant Plains, Illinois.”\nField trial 3 was conducted in Lowell, Indiana and a single soybean variety was tested. Soybean plants were treated with a double pass of methyl decanoate at a concentration of 0.10 M. The methyl decanoate spray contained an undiluted surfactant, polyoxyethylene sorbitan monolaurate, that was added in equal weight to the fatty ester.\nSoybean plants were treated the methyl decanoate spray using a backpack spray unit. Soybeans were sprayed in between growth stages V4-V6. The test plots were 21 rows by 50 feet."}}}
{"smiles": "CCCCCCCCCC(=O)OC", "note": "[methyl decanoate]", "values": [{"measurement": "seed yield compared to untreated control plants (in words)", "setting": "[1]; 0.10 M spray with polyoxyethylene sorbitan monolaurate, V5 growth stage", "result": "increased seed yield"}, {"measurement": "higher seed production than the untreated control", "setting": "[1]; double pass of 0.1M spray at V5 stage, Pleasant Plains, Illinois, F=3.33, p=0.046", "result": 24, "unit": "%"}, {"measurement": "soybean seed production (seeds/plant on average)", "setting": "[1]; double pass of 0.1M spray at V5 stage, Pleasant Plains, Illinois, untreated controls 160.47±5.33", "result": "199.0±14.14", "unit": "seeds/plant"}, {"measurement": "seed yield compared to untreated control plants (in words)", "setting": "[2]; 0.10 M spray with surfactant, at or between V3 and V4", "result": "increased seed yield"}, {"measurement": "higher seed production than the untreated control", "setting": "[2]; double pass of 0.1M spray at V3 stage, Mt. Pulaski, Illinois, F=2.74, p=0.084", "result": 38.4, "unit": "%"}, {"measurement": "soybean seed production (seeds/plant on average)", "setting": "[2]; double pass of 0.1M spray at V3 stage, Mt. Pulaski, Illinois, untreated controls 147.88±13.59", "result": "220.6±21.96", "unit": "seeds/plant"}, {"measurement": "seed yield compared to untreated control plants (in words)", "setting": "[3]; double pass 0.10 M spray with polyoxyethylene sorbitan monolaurate, V4-V6", "result": "increased seed yield"}, {"measurement": "higher seed production than the untreated control", "setting": "[3]; double pass of 0.1M spray at V4-V6 stage, Lowell, Indiana, F=5.63, p=0.005", "result": 22.6, "unit": "%"}, {"measurement": "soybean seed production (seeds/plant on average)", "setting": "[3]; double pass of 0.1M spray at V4-V6 stage, Lowell, Indiana, untreated controls 79.81±3.09", "result": "97.85±4.43", "unit": "seeds/plant"}]}
